Assay results: patent US7211597B2, “Substituted pyrazolyl compounds for the treatment of inflammation” (priority 2001, dated 2007)
pIC50: −log10 of the molar value.

Biological target: T1, IKK heterodimer (rhIKK1/IKK2) (Homo sapiens, UniProt O14920+O15111)
T1 construct: made in house; host or cells: baculovirus-infected insect cells (SF9)
T1 sequence (O14920 1-756): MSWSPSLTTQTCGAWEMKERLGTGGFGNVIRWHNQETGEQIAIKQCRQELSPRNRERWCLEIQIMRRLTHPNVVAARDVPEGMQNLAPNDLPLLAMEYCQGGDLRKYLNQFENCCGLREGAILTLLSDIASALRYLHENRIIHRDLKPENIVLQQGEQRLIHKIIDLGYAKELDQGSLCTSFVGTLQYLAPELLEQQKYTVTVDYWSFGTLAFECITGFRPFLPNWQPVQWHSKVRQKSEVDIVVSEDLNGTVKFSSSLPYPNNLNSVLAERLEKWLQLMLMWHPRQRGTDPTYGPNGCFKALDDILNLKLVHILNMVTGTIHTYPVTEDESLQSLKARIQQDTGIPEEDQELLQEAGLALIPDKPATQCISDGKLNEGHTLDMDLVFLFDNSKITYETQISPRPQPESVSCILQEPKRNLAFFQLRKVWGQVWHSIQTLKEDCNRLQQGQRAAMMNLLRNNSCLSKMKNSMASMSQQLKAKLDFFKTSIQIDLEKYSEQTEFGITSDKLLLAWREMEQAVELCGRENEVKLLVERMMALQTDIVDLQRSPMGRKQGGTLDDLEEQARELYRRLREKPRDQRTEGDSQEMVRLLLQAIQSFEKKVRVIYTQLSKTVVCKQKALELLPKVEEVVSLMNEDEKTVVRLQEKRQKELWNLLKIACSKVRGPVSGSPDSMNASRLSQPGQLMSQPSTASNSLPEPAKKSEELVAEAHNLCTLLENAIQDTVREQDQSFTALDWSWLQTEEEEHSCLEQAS
T1 sequence (O15111 1-745): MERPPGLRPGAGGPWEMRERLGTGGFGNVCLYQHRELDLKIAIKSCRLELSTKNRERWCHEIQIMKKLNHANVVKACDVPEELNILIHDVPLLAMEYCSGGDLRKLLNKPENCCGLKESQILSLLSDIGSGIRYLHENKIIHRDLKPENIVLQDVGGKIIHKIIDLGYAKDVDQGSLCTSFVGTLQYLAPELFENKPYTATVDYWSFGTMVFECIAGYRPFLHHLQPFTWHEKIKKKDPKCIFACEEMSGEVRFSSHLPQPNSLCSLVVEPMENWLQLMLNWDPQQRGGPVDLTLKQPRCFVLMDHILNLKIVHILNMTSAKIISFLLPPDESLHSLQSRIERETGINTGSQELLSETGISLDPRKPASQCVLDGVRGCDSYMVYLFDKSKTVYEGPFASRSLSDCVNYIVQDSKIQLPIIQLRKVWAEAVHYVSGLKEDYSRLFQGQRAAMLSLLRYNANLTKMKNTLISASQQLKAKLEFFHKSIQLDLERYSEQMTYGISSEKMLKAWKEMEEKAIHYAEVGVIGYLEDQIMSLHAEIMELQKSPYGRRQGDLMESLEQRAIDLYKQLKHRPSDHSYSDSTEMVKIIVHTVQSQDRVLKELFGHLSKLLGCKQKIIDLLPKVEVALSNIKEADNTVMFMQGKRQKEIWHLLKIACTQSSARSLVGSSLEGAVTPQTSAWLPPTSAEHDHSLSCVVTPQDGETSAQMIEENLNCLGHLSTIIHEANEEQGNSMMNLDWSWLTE
Assay: IKK heterodimer resin enzyme assay
Type: biochemical
Conditions: Table 1; read-out: HetD (IKK heterodimer assay values expressed as IC50)
Source text: cDNAs of human IKK1 and IKK2 were amplified by reverse transcriptase-polymerase chain reaction from human placental RNA (Clonetech). hIKK1 was subcloned into pFastBac HTa (Life Technologies) and expressed as N-terminal His6-tagged fusion protein. The hIKK2 cDNA was amplified using a reverse oligonucleotide primer which incorporated the peptide sequence for a FLAG-epitope tag at the C-terminus of the IKK2 coding region (DYKDDDDKD). The hIKK2:FLAG cDNA was subcloned into the baculovirus vector pFastBac. The rhIKK2 ([…]) mutant was constructed in the same vector used for wild type rhIKK2 using a QuikChange™ mutagenesis kit (Stratagene). Viral stocks of each construct were used to infect insect cells grown in 40L suspension culture. […] Cell lysates were stored at −80° C. until purification of the recombinant proteins was undertaken as described below.
Isolation of rhIKK1/IKK2 Heterodimer
The heterodimer enzyme was produced by coinfection in a baculovirus system (FLAG IKK2/IKK1 His; MOI=0.1 and I=72 hrs). Infected cells were centrifuged and the cell pellet (10.0 g) was suspended in 50 ml of buffer A. The protein suspension was microfluidized and centrifuged at 100,000×g for 45 min. Imidazole was added to the supernatant to a final concentration of 10 mM. The protein was allowed to bind 25 ml of Ni-NTA resin by mixing for 2 hrs. The protein-resin slurry was poured into a 25 ml column and washed with 250 ml of buffer A containing 10 mM imidazole followed by 125 ml of buffer A containing 50 mM imidazole. Buffer A, containing 300 mM imidazole, was then used to elute the protein. A 75 ml pool was collected and NP-40 was added to a final concentration of 0.1%. The protein solution was then dialyzed against buffer B. The dialyzed heterodimer enzyme was then allowed to bind to 25 ml of anti-FLAG M2 agarose affinity gel overnight with constant mixing. The protein-resin slurry was then centrifuged for 5 min at 2,000 rpm. The supernatant was collected and the resin re-suspended in 100 ml of buffer C containing 0.1% NP-40. The resin was washed with 375 ml of buffer C containing 0.1% NP-40. The protein-resin was poured into a 25 ml column and the enzyme eluted using buffer B containing FLAG peptide. Enzyme fractions (100 ml) were collected and concentrated to 20 ml using an Amicon membrane with molecular weight cut-off of 30 kDa. Bovine serum albumin was added to the concentrated enzyme to final concentration of 0.1%. The enzyme was then aliquoted and stored at −80° C.
IKK Heterodimer Resin Enzyme Assay
IKK heterodimer kinase activity was measured using a biotinylated IκBα peptide (Gly-Leu-Lys-Lys-Glu-Arg-Leu-Leu-Asp-Asp-Arg-His-Asp-Ser32-Gly-Leu-Asp-Ser36-Met-Lys-Asp-Glu-Glu) (American Peptide Co.). 20 ul of the standard reaction mixture contained 5 μM biotinylated IκBα peptide, 0.1 μCi/reaction [γ-^33P] ATP (Amersham) (about 1×10^5 cpm), 1 μM ATP (Sigma), 1 mM DTT (Sigma), 2 mM MgCl2 (Sigma), 2 mM MnCl2 (Sigma), 10 mM NaF (Sigma), 25 mM Hepes (Sigma) buffer, pH 7.6 and 20 μl enzyme solution and 10 μl inhibitor in a final volume of 50 μl. After incubation at 25° C. for 30 min, 150 μl resin (Dowex anion-exchange resin AG1X8 200-400 mesh) in 900 mM formate, pH 3.0 was added to each well to stop the reaction. Resin was allowed to settle for one hour and 50 ul of supernatant was removed to a Micolite-2 flat bottom plate (Dynex). 150 μl of scintillation fluid (Microscint 40) (Packard) was added to each well. Incorporation of [γ-^33P] ATP was measured using a Top-Count NXT (Packard).

Question: `Cc1ccc(S(=O)(=O)N2Cc3c(C(N)=O)nn(-c4ccc(S(N)(=O)=O)cc4)c3-c3ccccc32)cc1` [Example 15, 1-[4-(aminosulfonyl)phenyl]-5-[(4-methylphenyl)sulfonyl]-4,5-dihydro-1H-pyrazolo[4,3-c]quinoline-3-carboxamide] was tested. Which pIC50 did it give?
Answer: < 4.00

Question: With `CCOC(=O)c1nn(-c2ccc(S(N)(=O)=O)cc2)c2c1CN(S(=O)(=O)c1ccc(C)cc1)c1ccccc1-2` [Example 14, ethyl 1-[4-(aminosulfonyl)phenyl]-5-[(4-methylphenyl)sulfonyl]-4,5-dihydro-1H-pyrazolo[4,3-c]quinoline-3-carboxylate] as the compound, how does the pIC50 read?
Answer: < 4.00

Question: With `NSOOc1ccc(-n2nc(C(N)=O)c3c2-c2ccc4c(c2CS3)OCO4)cc1` [Example 11, 8-{4-[(aminothio)peroxy]phenyl}-4,8-dihydro[1,3]dioxolo[7,8]isothiochromeno[4,3-c]pyrazole-6-carboxamide] as the compound, how does the pIC50 read?
Answer: < 4.00

Question: `CCOC(=O)c1nn(-c2ccc(OOSN)cc2)c2c1SCc1ccccc1-2` [Example 9, ethyl 1-{4-[(aminothio)peroxy]phenyl}-1,5-dihydroisothiochromeno[4,3-c]pyrazole-3-carboxylate] was tested. Which pIC50 did it give?
Answer: < 4.00

Question: With `NSOOc1ccc(-n2nc(C(N)=O)c3c2-c2ccccc2CS3)cc1` [Example 10, 1-{4-[(aminothio)peroxy]phenyl}-1,5-dihydroisothiochromeno[4,3-c]pyrazole-3-carboxamide] as the compound, how does the pIC50 read?
Answer: < 4.00

Question: `CCOC(=O)c1nn(-c2ccc(S(N)(=O)=O)cc2)c2c1CNc1ccccc1-2` [Example 12, ethyl 1-[4-(aminosulfonyl)phenyl]-4,5-dihydro-1H-pyrazolo[4,3-c]quinoline-3-carboxylate] was tested. Which pIC50 did it give?
Answer: < 4.00
